In PMC11696576, “Next generation thiazolyl ketone inhibitors of cytosolic phospholipase A2 α for targeted cancer therapy” (Nature Communications, 2025):
Several values for one entry are separate records, joined by “and”; a condition that tells them apart may be missing. Equal values may be shown once.

Tested on: whole blood
Test: eicosanoid release from LPS-stimulated whole blood
Assay type: cell-based, human
Design: LTB4 / 5-HETE / 11,12-EET / 12-HETE: unit not given here
Conditions: for 15-HETE level, whole blood / PGE2 level, whole blood / TxB2 level, whole blood: individual replicate
From the text: In whole blood, bacterial lipopolysaccharide (LPS) stimulated the release of PGE2, thromboxane B2 (TXB2), and 15-hydroxyeicosatetraenoic acid (HETE). […] The levels of leukotriene B4 (LTB4), 12-HETE, 5-HETE and 11,12-epoxyeicosatrienoic acid (EET) were not affected by LPS stimulation but increased when exogenous AA was included, irrespective of the presence of GK420 (Fig. S1a).
Fig. 3 Ex vivo suppression of eicosanoid production by GK420. a Eicosanoid levels (pmol/mL) in the plasma of whole blood pretreated with vehicle (DMSO), 3, 10 or 30 µM GK420,) 10 µM arachidonyl trifluoromethyl ketone (ATK), or 1 μM indomethacin (Indo) before stimulation with 1 µg/mL LPS for 24 h. […] All box and whisker plots show the mean (center line), stdev (box), and min and max values (whiskers) from 4 biological replicates. P-values were determined using RM-one way ANOVA with Dunnett’s correction for multiple comparisons.
Aliquots of 0.4 mL of heparinized whole blood were mixed with 1.6 mL of serum-free RPMI cultivation medium with- or without indomethacin (# I7378, Sigma-Aldrich), GK420, or arachidonyl trifluoromethyl ketone (ATK) (Cayman #62120), prior to the addition of lipopolysaccharides (LPS) (1 μg/mL) to activate the cPLA2α enzyme (LPS was from E. coli 026:B6 γ-irradiated, #L2654, Sigma-Aldrich). Exogenous arachidonic acid (5–10 µM) (#3555, Sigma-Aldrich) was added after 23.5 h, for the final 30 mins of the 24 h stimulation. Following treatment (24 h, 37 °C, 5% CO2), the diluted blood was centrifuged (5992 × g for 10 min at 4 °C) to isolate the plasma from the cell fraction. Plasma samples were stored at −80 °C until analysis. Samples were analyzed at the Lipid Maps Consortium, UCSD according to the standard methods. 200 µL of sample was subjected to solid phase extraction of the eicosanoids using the StrataX solid phase extraction columns from Phenomenex and analyzed by UHPLC-MS/MS using full standards mix.

[1] = 10 uM + LPS + AA, listed as AVX420

CCCCCCCOc1ccc(OCC(=O)c2nc(C(=O)OC)cs2)cc1 [GK420]
15-HETE level, whole blood (3 uM + LPS): 0.23 pmol/mL and 1.1 pmol/mL and 0.41 pmol/mL and 0.42 pmol/mL | PGE2 level, whole blood (3 uM + LPS): 0.2 pmol/mL and 2.5 pmol/mL and 0.7 pmol/mL and 0.9 pmol/mL | TxB2 level, whole blood (3 uM + LPS): 1 pmol/mL and 10.1 pmol/mL and 3.2 pmol/mL and 4.5 pmol/mL | 15-HETE level, whole blood (10 uM + LPS + AA): 68.15 pmol/mL and 72.88 pmol/mL and 78.71 pmol/mL and 78.11 pmol/mL | PGE2 level, whole blood (10 uM + LPS + AA): 11.8 pmol/mL and 18.9 pmol/mL and 15.6 pmol/mL and 18.2 pmol/mL | TxB2 level, whole blood (10 uM + LPS + AA): 14.6 pmol/mL and 27.5 pmol/mL and 24.1 pmol/mL and 18.1 pmol/mL | 5-HETE [1]: 59.11 and 60.82 and 63.51 and 71.56 | 11,12-EET [1]: 12.46 and 11.85 and 10.02 and 12.34 | 12-HETE [1]: 73 and 139.7 and 83.5 and 77.9 | LTB4 [1]: 0.6 and 0.8 | 15-HETE level, whole blood (10 uM + LPS): 0.65 pmol/mL and 0.26 pmol/mL and 0.51 pmol/mL and 0.31 pmol/mL | PGE2 level, whole blood (10 uM + LPS): 1.7 pmol/mL and 0.3 pmol/mL and 0.7 pmol/mL and 0.1 pmol/mL | TxB2 level, whole blood (10 uM + LPS): 8.4 pmol/mL and 1.9 pmol/mL and 2.9 pmol/mL and 0.8 pmol/mL | 15-HETE level, whole blood (30 uM + LPS): 0.31 pmol/ml (2×) and 0.35 pmol/ml and 0.42 pmol/ml | PGE2 level, whole blood (30 uM + LPS): 0.05 pmol/ml and 0.4 pmol/ml and 0.1 pmol/ml (2×) | TxB2 level, whole blood (30 uM + LPS): 0.2 pmol/mL and 3.4 pmol/mL and 1.2 pmol/mL and 1.5 pmol/mL | production of PGE2, TXB2 and 15-HETE (whole blood, LPS): suppressed their production | production of PGE2, TXB2 and 15-HETE with excess free AA (whole blood, LPS + exogenous free AA): no effect
